# Entries after “also recorded” stand apart in the source; their conditions may differ.
# Experiments:
# [1] = tested on: Salmonella typhimurium ATCC 14028; test: MIC and synergy index of natamycin/LAE solutions; assay type: cell-based
# Procedure: (§1) In this example the influence of the synergism of combinations of LAE and natamycin in the inventive composition has been investigated.
# (§2) For that purpose propylene glycol solutions with different concentrations of LAE and natamyin were prepared.
# (§3) The effects of these preparations were investigated against the moulds Aspergillus niger, Penicillium caseicolum, Cladosporium cladosporioides and Rhizopus, the bacteria Escherichia coli (ATCC 8739), Salmonella typhimurium (ATCC 14028), Listeria monocytogenes (ATCC 15313), Bacillus subtilis (ATCC 6633) and the yeasts Candida albicans (ATCC 10231) and Saccharomyces cerevisiae (ATCC 9763).
# (§4) The table indicates the MIC values found at different relationship between natamycin and LAE, whereby a value for natamycin: LAE 1:1 means the same concentration for both substances in the antimicrobial composition.
# (§5) The interaction of the two components of the antimicrobial mixture is calculated according to the method described by Kull et al. (Kull F. C., Eisman P. C., Sylwestrowicz H. D. and Mayer R. L., Applied Microbiology, 1961; 6: 538-541). According to this method the so-called synergy index is calculated according to the following formula:
# (§6) Synergy index SI=Qlae/QLAE+Qn/QN.
# (§7) The elements used for the calculation of the synergy index according to the above formula have the following meaning: • Qlae=minimum inhibition concentration of LAE in the mixture of LAE and natamycin, • QLAE=minimum inhibition concentration of LAE as single antimicrobial without natamycin, • Qn=minimum inhibition concentration of natamycin in the mixture of LAE and natamycin and • QN=minimum inhibition concentration of natamycin as single antimicrobial without LAE.
# (§8) All indicated symbols indicate a particular concentration leading to a particular end point, in this case the inhibition of growth of the microorganisms, so that the selected end point is in fact the minimal inhibitory concentration (MIC).
# (§9) When the synergy index is 1, then there is an addition of the effects of the two components.
# (§10) Qn: MIC of natamycin in the mixture of natamycin and LAE QN: MIC of natamycin alone Qlae: MIC of LAE in the mixture of natamycin and LAE QLAE: MIC of LAE alone
# (§11) The MIC values of natamycin alone (QN) reported in tables 5 to 8 corresponds to the maximum value studied. However, the real MIC of natamycin is higher than the maximum values studied (i.e.: 1024, 2048), accordingly the real SI should be lower than the SI reported in the tables.
# [2] = tested on: Escherichia coli ATCC 8739; test: MIC and synergy index of natamycin/LAE solutions; assay type: cell-based
# Procedure: as §1, §2, §3, §4, §5, §6, §7, §8, §9, §10, §11
# [3] = tested on: Bacillus subtilis ATCC 6633; test: MIC and synergy index of natamycin/LAE solutions; assay type: cell-based
# Procedure: as §1, §2, §3, §4, §5, §6, §7, §8, §9, §10, §11
# [4] = tested on: Listeria monocytogenes ATCC 15313; test: MIC and synergy index of natamycin/LAE solutions; assay type: cell-based
# Procedure: as §1, §2, §3, §4, §5, §6, §7, §8, §9, §10, §11
# [5] = tested on: Penicillum casicolum, Rizopus, Aspergillus niger and Cladosporium cladosporioides; test: Microbiocidal effect on inoculated cured cheese immersed in baths; assay type: cell-based; conditions: Lauric arginate 10% bath, 5 seconds immersion; inoculated 4 log CFU/g; 22° C.; up to 15 days; separate treatments; monohydrochloride
# Procedure: Cured cheese was purchased from a local producer. The cheese contains cow milk, sheep milk, goat milk, starters, salt, rennet. The minimum amount of fat 55%/dry weight. Minimum 45 dry weight. Lauric arginate-from […] with purity 90% Ethyl-N^α-lauroyl-L-arginate HCl. Natamycin-95% in dry weight commercially available. Inoculums is a mix of Penicillum casicolum, Rizopus, Aspergillus niger and Cladosporium cladosporioides. Spores seeded in Sabouraud Chloramphenirol agar are incubated at 25° C. for 5 days. Spores are scraped of the agar with Ringer broth and diluted in Brain Heart Infusion broth. Brain Heart Infusion broth is incubated at 25° C. for 5 days. Diluted inoculums are mixed at the desire concentration in order to have the mix inoculums. […] The cheese was sliced and cut in equal portions of 5 centimeters of diameter by 5 millimeters wide in sterile surroundings. The portions of cheese were immersed in the bath for 5 seconds. They were dripped and dried for 5 minutes in a sterile surface. After this, each sample was inoculated with Penicillum casicolum, Rizopus, Aspergillus niger and Cladosporium cladosporioides at target concentration of 4 log CFU/g. Natamycin 95% concentrations: two differently concentrated baths of natamycin were prepared: 500 ppm and 1000 ppm. Lauric arginate concentrations: four differently concentrated baths of Lauric arginate were prepared: 0.5%, 1%, 5% and 10%. […]
# [6] = tested on: Saccharomyces cerevisiae ATCC 9763; test: MIC and synergy index of natamycin/LAE solutions; assay type: cell-based
# Procedure: as §1, §2, §3, §4, §5, §6, §7, §8, §9, §10
# [7] = tested on: Rhizopus; test: MIC and synergy index of natamycin/LAE solutions; assay type: cell-based
# Procedure: as §1, §2, §3, §4, §5, §6, §7, §8, §9, §10
# [8] = tested on: Cladosporium cladosporioides; test: MIC and synergy index of natamycin/LAE solutions; assay type: cell-based
# Procedure: as §1, §2, §3, §4, §5, §6, §7, §8, §9, §10
# [9] = tested on: Aspergillus niger; test: MIC and synergy index of natamycin/LAE solutions; assay type: cell-based
# Procedure: as §1, §2, §3, §4, §5, §6, §7, §8, §9, §10
# [10] = tested on: Penicillium caseicolum; test: MIC and synergy index of natamycin/LAE solutions; assay type: cell-based
# Procedure: as §1, §2, §3, §4, §5, §6, §7, §8, §9, §10
# [11] = tested on: Candida albicans ATCC 10231; test: MIC and synergy index of natamycin/LAE solutions; assay type: cell-based
# Procedure: as §1, §2, §3, §4, §5, §6, §7, §8, §9, §10
# [12] = Solubility of natamycin in aqueous solution with LAE; assay type: physicochemical; conditions: 10% of LAE in water
# From the text: According to the dose level between natamycin and LAE, the total solubility of natamycin was observed. […] This low viscosity improves the application process of the solution in the product desired to be treated.
# [13] = cited from earlier work
# [14] = value is the maximum value studied, real MIC is higher
compound,measurement,setting,value
"CCCCCCCCCCCC(=O)N[C@@H](CCCN=C(N)N)C(=O)OCC.Cl [LAE, ethyl ester of the lauramide of the arginine monohydrochloride]",QLAE: MIC of LAE alone,[1],32
same,QLAE: MIC of LAE alone,[2],32
same,QLAE: MIC of LAE alone,[3],16
same,QLAE: MIC of LAE alone,[4],32
same,inhibitory power / microbiocidal effect on cured cheese,[5],best treatment; also recorded: effective
same,QLAE: MIC of LAE alone,[6],32
same,QLAE: MIC of LAE alone,[7],648
same,QLAE: MIC of LAE alone,[8],64
same,QLAE: MIC of LAE alone,[9],128
same,QLAE: MIC of LAE alone,[10],256
same,QLAE: MIC of LAE alone,[11],16
C[C@@H]1C/C=C/C=C/C=C/C=C/[C@H](O[C@@H]2O[C@H](C)[C@@H](O)[C@H](N)[C@@H]2O)C[C@@H]2O[C@](O)(C[C@@H](O)C[C@H]3O[C@@H]3/C=C/C(=O)O1)C[C@H](O)[C@H]2C(=O)O [natamycin],QN: MIC of natamycin alone,[1]; [14],> 2048
same,QN: MIC of natamycin alone,[2]; [14],> 1024
same,QN: MIC of natamycin alone,[3]; [14],> 2048
same,QN: MIC of natamycin alone,[4]; [14],> 1024
same,QN: MIC of natamycin alone,[6],2.5
same,QN: MIC of natamycin alone,[7],4
same,QN: MIC of natamycin alone,[8],1
same,QN: MIC of natamycin alone,[9],2
same,QN: MIC of natamycin alone,[10],1
same,QN: MIC of natamycin alone,[11],2
same,natamycin solubilised,[12],more than 1000 ppm
same,solubility of natamycin in water,[13],0.005-0.010 % (w/w)

# Reference: US20100305055A1, “COMBINATIONS OF POLYENE FUNGICIDE WITH CATIONIC SURFACTANTS” (Laboratorios Miret, S.A., priority 2007, published 2010)
